Source: ChEMBL document CHEMBL4261547, “Bitopic fluorescent antagonists of the A2A adenosine receptor based on pyrazolo[4,3-e][1,2,4]triazolo[1,5-c]pyrimidin-5-amine functionalized congeners” (Medchemcomm, 2017)

Molecular target: T1, Adenosine receptor A1 (Homo sapiens) (UniProt P30542)
T1 sequence (whole entry): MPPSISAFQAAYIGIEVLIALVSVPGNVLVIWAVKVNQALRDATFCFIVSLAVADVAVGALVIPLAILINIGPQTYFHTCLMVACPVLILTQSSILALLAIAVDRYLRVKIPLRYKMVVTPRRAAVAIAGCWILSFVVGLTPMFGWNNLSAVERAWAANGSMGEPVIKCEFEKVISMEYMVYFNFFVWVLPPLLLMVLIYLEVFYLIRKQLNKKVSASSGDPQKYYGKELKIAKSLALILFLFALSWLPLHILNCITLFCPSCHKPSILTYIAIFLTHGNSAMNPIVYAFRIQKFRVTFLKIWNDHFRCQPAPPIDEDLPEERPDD
Assay: Binding affinity to recombinant human adenosine receptor A1 expressed in HEK293 cell membranes at 50 to 200 nM after 1 hr by FACS analysis relative to control

Question: `Nc1nc2c(cnn2CCCc2ccc(OCC(=O)NCCCCNC(=O)CCCCCNC(=O)COc3ccc(/C=C/C4=[N+]5C(=Cc6ccc(-c7cccs7)n6[B-]5(F)F)C=C4)cc3)cc2)c2nc(-c3ccco3)nn12` was tested. Which Activity did it give?
Answer: The Activity was < 25%.
